Patent publication US6423722B1, “Crystalline macrolides and process for their preparation” (Novartis AG, priority 1997, dated 2002)
Values after ≈ are worked out from the molar mass of the structure shown. Where two headings read alike, the source gives them in different places.

Assays:
Format in all cases: physicochemical
[1] = solubility of the crystal forms in water and organic solvents
[2] = solubility in the oil phase of cream (oleyl alcohol/miglyol 812 4:6)
[3] = hygroscopicity (uptake determined by thermogravimetry)
Protocol: hygroscopicity (uptake determined by thermogravimetry): 1.49% (1 day, 92% r.h.); 1.78% (1 week, 25° C., 75% r.h.); hygroscopicity(uptake determined by thermogravimetry): 1 day, 92% r.h. and 1 week, 25° C., 75% r.h.: none;

[4] = dissolution in the oil phase in the preparation of a cream; conditions: for time to dissolve in the oil phase: preparation of a cream
From the text: The availability of well-defined crystalline forms of the compound of formula I is therefore particularly indicated for use in the preparation of galenical forms of the compound where it is indicated to overcome the above disadvantages, such as in the preparation of topical forms, e.g. creams, emulsions and ointments where it is desired to include the compound normally in dissolved state but under carefully controlled conditions. Thus in the preparation of a cream, it has been observed that Form A dissolves in the oil phase in about 10 minutes, whereas for Form B it takes about 6 hours.
(§1) During the preparation of these preformulations, it is observed that the solving speed of crystal Form B in the oily phase of the cream is much slower than that of crystal Form A. Immediately after manufacturing, the forms are investigated and no remaining crystals are observed.

[5] = solubilization of Forms A and B in 1% creams; examination for crystals after manufacturing and storage; conditions: room temperature; estimated
Protocol: a) The solubility of Form A in a cream formulation is estimated to be about 1% at room temperature. In the manufacturing of cream, the drug substance is completely dissolved in the oily phase at 60-75°. To assess whether and after which storage time part of the drug substance dissolved will crystallize from the 1% cream, a series of batches is examined for crystals.
The drug substance used in the batches and preformulations mentioned above contained 100% Form A.
b) To assess whether drug substance containing Form B can be completely dissolved in the manufacturing of cream and to evaluate the long-term crystallization behaviour, several preformulations (cream, 1%) containing 0%, 1%, 5% and 10% Form B relative to the total content of compound of formula I are manufactured and put on stability testing at different temperatures.
as §1
To get information about the long-term crystallization behaviour of these forms, the stability samples are further investigated after 6 weeks, 3, 6 and 9 months storage.

[6] = thermodynamic stability of the crystal forms; conditions: compared with Form A

**Q.** What does the source list for `CC[C@@H]1/C=C(\C)C[C@H](C)C[C@H](OC)[C@H]2O[C@@](O)(C(=O)C(=O)N3CCCC[C@H]3C(=O)O[C@H](/C(C)=C/[C@@H]3CC[C@H](Cl)[C@H](OC)C3)[C@H](C)[C@@H](O)CC1=O)[C@H](C)C[C@@H]2OC` [Form A, 33-epichloro-33-desoxyascomycin]?
**A.** solubility ([1]; acetone, 25 °C, organic solvent or mixture, at 25° C., read-out: solubility in acetone): > 50 mg/mL; solubility ([1]; acetonitrile, 25 °C, organic solvent or mixture, at 25° C., read-out: solubility in acetonitrile): > 50 mg/mL; solubility in diethylether ([1]; at 5° C.): > 100 mg/mL; solubility in diisopropyl ether ([1]; at 5° C.): > 100 mg/mL; solubility in ethanol ([1]; at 5° C.): > 100 mg/mL; solubility in hexane ([1]; at 5° C.): < 10 mg/mL; solubility in methanol ([1]; at 5° C.): > 100 mg/mL; solubility in water ([1]; at 5° C., result in words): insoluble; solubility in water ([1]; at 25° C.): < 1 mg/mL; solubility ([1]; ethanol, 25 °C, organic solvent or mixture, at 25° C., read-out: solubility in ethanol): > 50 mg/mL; solubility ([1]; ethyl acetate, 5 °C, organic solvent or mixture, at 5° C., read-out: solubility in ethyl acetate): > 100 mg/mL; solubility ([1]; ethyl acetate, 25 °C, organic solvent or mixture, at 25° C., read-out: solubility in ethyl acetate): > 50 mg/mL; solubility ([1]; isopropanol, 25 °C, organic solvent or mixture, at 25° C., read-out: solubility in isopropanol): > 50 mg/mL; solubility ([1]; methanol, 25 °C, organic solvent or mixture, at 25° C., read-out: solubility in methanol): > 50 mg/mL; solubility in the oil phase of cream [2]: 2.49%; hygroscopicity (uptake determined by thermogravimetry) ([3]; 1 week, 25° C., 75% r.h.): 1.78%; hygroscopicity (uptake determined by thermogravimetry) ([3]; 1 day, 92% r.h.): 1.49%; time to dissolve in the oil phase [4]: about 10 minutes; solubility in a cream formulation [5]: about 1%

**Q.** For `CC[C@@H]1/C=C(\C)C[C@H](C)C[C@H](OC)[C@H]2O[C@@](O)(C(=O)C(=O)N3CCCC[C@H]3C(=O)O[C@H](/C(C)=C/[C@@H]3CC[C@H](Cl)[C@H](OC)C3)[C@H](C)[C@@H](O)CC1=O)[C@H](C)C[C@@H]2OC` [Form B, 33-epichloro-33-desoxyascomycin], which solubility in diethylether ([1]; at 5° C.) is on record?
**A.** 9.3 mg/mL (≈ 11.5 mM)

**Q.** What about the “solubility in diisopropyl ether” value ([1]; at 5° C.) of the same compound?
**A.** 1.9 mg/mL (≈ 2.34 mM)

**Q.** And the solubility in ethanol ([1]; at 5° C.)?
**A.** 18.1 mg/mL (≈ 22.3 mM)

**Q.** And the “solubility in ethyl acetate” value ([1]; at 5° C.)?
**A.** > 50 mg/mL

**Q.** And the solubility in hexane ([1]; at 5° C.)?
**A.** 0.8 mg/mL (≈ 0.987 mM)

**Q.** And the solubility in methanol ([1]; at 5° C.)?
**A.** 46.3 mg/mL (≈ 57.1 mM)

**Q.** What about the solubility in ethanol ([1]; at 25° C.) of the same compound?
**A.** 34.4 mg/mL (≈ 42.4 mM)

**Q.** What about the “solubility in ethyl acetate” value ([1]; at 25° C.) of the same compound?
**A.** > 50 mg/mL

**Q.** What about the solubility in methanol ([1]; at 25° C.) of the same compound?
**A.** > 50 mg/mL

**Q.** What about the solubility in water ([1]; at 25° C.) of the same compound?
**A.** 0.4 mg/mL (≈ 0.494 mM)

**Q.** What about the solubility ([1]; diethyl ether, 25 °C, organic solvent or mixture, at 25° C., read-out: solubility in diethyl ether) of the same compound?
**A.** 16.3 mg/mL (≈ 20.1 mM)

**Q.** What about the solubility ([1]; diisopropyl ether, 25 °C, organic solvent or mixture, at 25° C., read-out: solubility in diisopropyl ether) of the same compound?
**A.** 3.1 mg/mL (≈ 3.82 mM)

**Q.** And the solubility ([1]; hexane, 25 °C, organic solvent or mixture, at 25° C., read-out: solubility in hexane)?
**A.** 1.5 mg/mL (≈ 1.85 mM)

**Q.** And the solubility ([1]; water, 5 °C, water, at 5° C., read-out: solubility in water)?
**A.** 0.3 mg/mL (≈ 0.37 mM)

**Q.** And the “solubility in the oil phase of cream” value [2]?
**A.** 0.37%

**Q.** And the “hygroscopicity (uptake determined by thermogravimetry)” value ([3]; 1 week, 25° C., 75% r.h., result in words)?
**A.** none

**Q.** What about the “hygroscopicity (uptake determined by thermogravimetry)” value ([3]; 1 day, 92% r.h., result in words) of the same compound?
**A.** none

**Q.** And the “solving speed in the oily phase of the cream” value ([4]; preparation of 1% cream preformulations, compared with Form A)?
**A.** much slower

**Q.** And the “time to dissolve in the oil phase” value [4]?
**A.** about 6 hours

**Q.** What about the thermodynamic stability [6] of the same compound?
**A.** thermodynamically a more stable form than Form A
